US20140186329A1, “POLYPHENOL ANALOGS TO TREAT ISCHEMIA” (priority 2011, published 2014)
Where two headings read alike, the source gives them in different places.

How the values were obtained:
HT22 cells [1] = assay: Maintenance of total GSH in the presence of glutamate; assay type: cell-based, mouse; conditions: derivative 1-10 μM, 5 mM glutamate, 24 hr
Procedure: Total intracellular glutathione was determined by a chemical assay as described (Maher, P. et al., Free Radical Research. (2006) 40 (10), 1105-1111).
(§1) Three secondary screens allowed assessment of three key activities of Fisetin that are highly relevant to stroke, as well as other neurological disorders: maintenance of glutathione (GSH), the major endogenous cellular antioxidant, inhibition of LPS-induced microglial activation, an indicator of anti-inflammatory activity and PC 12 cell differentiation, a measure of neurotrophic activity. All of these activities are relevant to the nerve cell loss seen in stroke (Gelderblom, et al., Stroke. 2009, 40 (5), 1849-1857; Pandya, et al., Cent. Nerv. Syst. Agents. Med. Chem. (2011) April 27; Lewerenz, et al., J. Neurochem. (2010) 113 (2), 502-504). […] To assess GSH maintenance, total intracellular GSH levels after a 24 hr treatment with the compound both in the absence and presence of glutamate, an inducer of GSH loss and oxidative stress (Tan, et al., Curr. Top. Med. Chem. (2001) 1, 497-506; Maher, et al., Free Radical Research. (2006) 40 (10), 1105-1111) was measured. Inhibition of LPS-induced microglial activation was determined by treating N9 mouse microglial cells with LPS alone and in the presence of the compounds and assaying NO release into the medium 24 hr later (Zheng, et al., Int. Immunopharmacol. (2008) 8, (3), 484-494). PC12 cell differentiation was determined by treating PC12 cells with the compounds and looking at neurite outgrowth after 24 hr. In all cases, Fisetin was used as a positive control (Sagara, et al., J. Neurochem. (2004) 90, 1144-1155).
(§2) Cell viability was determined after 24 hr by the MTT assay. The ability to maintain GSH (GSH) was determined by treating HT22 cells with different doses of each derivative (1-10 μM) in the presence of 5 mM glutamate. After 24 hr cell extracts were prepared and analyzed for total GSH. Fisetin (10 μM) was used as a positive control. The ability to induce PC12 cell differentiation (PC 12 diff' n) was determined by treating PC12 cells in N2 medium with different doses of each derivative (1-10 μM) for 24 hr. Differentiation was assessed by visual inspection with Fisetin (10 μM) as a positive control. Anti-inflammatory activity (microglia) was assessed in N9 microglial cells treated with bacterial lipopolysaccharide alone or in the presence different doses of each derivative (1-10 μM) for 24 hr. Fisetin was used as a positive control. TEAC values, a measure of direct antioxidant activity, were determined using the ABTS decolorization assay.

[2] = TEAC, ABTS decolorization assay; conditions: relative to Trolox
Procedure: TEAC values for the flavonoids were determined as described (Maher, P. et al., Free Radical Research. (2006), supra). Briefly, 250 μl of 2,2′-azinobis(3-ethylbenzothiazoline 6-sulfonate) (ABTS) treated overnight with potassium persulfate and diluted to an OD of ˜0.7 at 734 nm was added to 2.5 μl of a derivative solution in ethanol. The change in absorbance due to the reduction of the ABTS radical cation was measured at 734 nm for 4 min. To calculate the TEAC, the gradient of the plot of the percentage inhibition of absorbance vs. concentration for the derivative in question was divided by the gradient of the plot for Trolox.
as §2

HT22 cells [3] = assay: In vitro ischemia assay (HT22 cell IAA assay, MTT); assay type: cell-based, mouse; conditions: for EC50 / Emax: Mus musculus; for EC50: HT-22, HT22 cells; for Emax: HT-22, HT22 Cell IAA assay, read-out: Max Protection; for EC50 in vitro ischemia (μM): HT22 cells
Procedure: Cell viability was determined by a modified version of 3-(4,5-dimethylthiazol-2-yl)-2,5-diphenyl tetrazolium bromide (MTT) assay based on the standard procedure (Maher, et al., Brain Research. (2007), supra). Cells were seeded onto 96-well microtiter plates at a density of 5×10^3 cells per well. For the in vitro ischemia assay, the next day, the medium was replaced with DMEM supplemented with 7.5% DFCS and the cells were treated with 20 μM iodoacetic acid (IAA) alone or in the presence of the different derivatives. After 2 hr the medium in each well was aspirated and replaced with fresh medium without IAA but containing the derivatives. 20 hr later, the medium in each well was aspirated and replaced with fresh medium containing 2.5 μg/ml MTT. After 4 hr of incubation at 37° C., the cells were solubilized with 100 μl of a solution containing 50% dimethylformamide and 20% SDS (pH 4.7). The absorbance at 570 nm was measured on the following day with a microplate reader (Molecular Devices). Results were confirmed by visual inspection of the wells. Controls included compound alone to test for toxicity and compound with no cells to test for interference with the assay chemistry.
For a primary screen, an in vitro ischemia model in combination with the HT22 nerve cell line (Maher, et al., Brain Research. (2007) 1173, 117-125) was chosen. […] To induce ischemia in the HT22 cells we used iodoacetic acid (IAA), a well-known, irreversible inhibitor of the glycolytic enzyme glyceraldehyde 3-phosphate dehydrogenase (G3PDH) (Winkler, et al., Exp. Eye Res. (2003) 76, 715-723). IAA has been used in a number of other studies to induce ischemia in nerve cells (Reshef, et al., Neurosci. Lett. (1997) 238, 37-40; Sperling, et al., Neursci. Lett. (2003) 351, 137-140; Rego, et al., Neurochem. Res. (1999) 24, 351-358; Sigalov, et al., J. Mol. Neurosci. (2000) 15, 147-154; and Reiner, et al., Neurosci. Lett. (1990) 119, 175-178), including several recent screens for neuroprotective molecules (Biraboneye, et al., J. Med. Chem. (2009) 52 (14), 4358-4369; Biraboneye, et al., Chem. Med. Chem. (2010) 5 (1), 79-85). The changes following IAA treatment of neural cells are very similar to those seen in animal models of ischemic stroke (Lipton, et al., Physiol. Rev. (1999) 79, 1431-1568) and include alterations in membrane potential (Reiner, et al., Neurosci. Lett. (1990) 119, 175-178), breakdown of phospholipids (Taylor, et al., J. Pharmacol. Exp. Ther. (1996) 276, 1224-1231), loss of ATP (Winkler, et al., Exp. Eye Res. (2003) 76, 715-723; Sperling, et al., Neursci. Lett. (2003) 351, 137-140) and an increase in reactive oxygen species (ROS) (Taylor, et al., J. Pharmacol. Exp. Ther. (1996), supra; and Sperling, et al., Neursci. Lett. (2003) 351, 137-140).
as §2
For rapid screening of chemical libraries, a mouse HT22 hippocampal cell death assay induced by addition of the compound iodoacetic acid (IAA) was used. IAA is a well-known, irreversible inhibitor of the glycolytic enzyme glyceraldehyde 3-phosphate dehydrogenase (G3PDH). […]

PC12 cells = assay: PC12 cell differentiation (neurite outgrowth); assay type: cell-based; conditions: N2 medium, derivative 1-10 μM, 24 hr, visual inspection
Procedure: PC 12 cells in N2 medium were treated with the derivatives (1-10 μM) or Fisetin (10 μM) as a positive control for 24 hr at which time the cells were scored for the presence of neurites. PC12 cells produce neurites much more rapidly when treated in N2 medium than when treated in regular growth medium. For each treatment, 100 cells in each of three separate fields were counted. Cells were scored positive if one or more neurites>1 cell body diameter in length were observed.
as §1, §2

[4] = 20 μM IAA for 2 hr, viability after 24 hr by MTT, read-out: EC50 in vitro ischemia
[5] = 20 μM IAA for 2 hr, viability after 24 hr by MTT

Compound	GSH (ability to maintain GSH) (HT22 cells [1])	TEAC [2]	EC50 (HT22 cells [3]; [4])	Emax (HT22 cells [3])	PC12 diff'n (ability to induce PC12 cell differentiation) (PC12 cells)	EC50 in vitro ischemia (μM) (HT22 cells [3]; [5])	EC50 (HT22 cells [3]; 20 μM IAA, read-out: HT22 Cell IAA assay EC50)
COc1ccc(-c2oc3cc(C)c(C)cc3c(=O)c2O)cc1O [CMS-092, 3-hydroxy-2-(3-hydroxy-4-methoxyphenyl)-6,7-dimethyl-4H-chromen-4-one]	no	1.74	20 nM	90%	no		
Cc1cc2oc(-c3ccc(O)cc3O)c(O)c(=O)c2cc1C [CMS-093, 2-(2,4-dihydroxyphenyl)-3-hydroxy-6,7-dimethyl-4H-chromen-4-one]	no	1.56	> 500 nM		no		
Cc1cc2oc(-c3ccc(O)cc3O)cc(=O)c2cc1C [CMS-094, 2-(2,4-dihydroxyphenyl)-6,7-dimethyl-4H-chromen-4-one]	no	0.15	> 500 nM		no		
COc1cc(-c2ccc(N(C)C)cc2)nc2ccccc12 [CMS-109, 4-methoxy-2-(4-dimethylaminophenyl)quinoline]	no	0.06	60 nM		no		
COc1cc(-c2ccc(N3CCCC3)cc2)nc2ccccc12 [CMS-110, 4-methoxy-2-(4-(pyrrolidin-1-yl)phenyl)quinoline]	no	0.27			no	no	
COc1cc(-c2ccc([N+](=O)[O-])c(O)c2)nc2ccccc12 [CMS-111, 4-methoxy-2-(3-hydroxy-4-nitrophenyl)quinoline]	no	0.18			no	no	
CC(C)Oc1cc(-c2ccc(N(C)C)cc2)nc2ccccc12 [CMS-112, 4-isopropoxy-2-(4-dimethylaminophenyl)quinoline]	no	0.15	50 nM		no		
CC(C)Oc1cc(-c2ccc(N3CCCC3)cc2)nc2ccccc12 [CMS-113, 4-isopropoxy-2-(4-(pyrrolidin-1-yl)phenyl)quinoline]	no	0.27	500 nM		no		
O=c1c(O)c(-c2ccc(N3CCCC3)cc2)oc2c1ccc1ccccc12 [CMS-114, 3-hydroxy-2-(4-(pyrrolidin-1-yl)phenyl)-4H-benzo[h]chromen-4-one]	no	1.44	70 nM	74%	yes		71 nM
O=c1cc(-c2ccc(N3CCCC3)cc2)oc2c1ccc1ccccc12 [CMS-115, 2-(4-(pyrrolidin-1-yl)phenyl)-4H-benzo[h]chromen-4-one]	no	0.03	200 nM		no		
Cc1cc2oc(-c3ccc(N4CCCC4)cc3)cc(=O)c2cc1C [CMS-116, 6,7-dimethyl-2-(4-(pyrrolidin-1-yl)phenyl)-4H-chromen-4-one]	no	0.12	> 500 nM		no		
Cc1cc2oc(-c3ccc(N(C)C)cc3)cc(=O)c2cc1C [CMS-119, 2-(4-(dimethylamino)phenyl)-6,7-dimethyl-4H-chromen-4-one]	no	0	> 500 nM		no		
CN(C)c1ccc(-c2cc(=O)c3ccc4ccccc4c3o2)cc1 [CMS-120, 2-(4-(dimethylamino)phenyl)-4H-benzo[h]chromen-4-one]	no	0.24	250 nM		no		
